{"source": "patent US20090076009A1", "about": "“THIAZOLE DERIVATIVES AND THEIR USE AS ANTI-TUMOUR AGENTS” (priority 2006, published 2009)", "key": {"p110α Type Ia human PI3K": {"target": "T1, p110α Type Ia human PI3K (Homo sapiens, UniProt P42336)", "T1 construct": "full length DNA of each of the p110α, p110β and p110δ Type Ia human PI3K p110 isoforms; 6-His; made in house; Grp1 PH domain in E. coli", "T1 sequence (P27986 whole entry, the tested form may be a part, canonical isoform)": "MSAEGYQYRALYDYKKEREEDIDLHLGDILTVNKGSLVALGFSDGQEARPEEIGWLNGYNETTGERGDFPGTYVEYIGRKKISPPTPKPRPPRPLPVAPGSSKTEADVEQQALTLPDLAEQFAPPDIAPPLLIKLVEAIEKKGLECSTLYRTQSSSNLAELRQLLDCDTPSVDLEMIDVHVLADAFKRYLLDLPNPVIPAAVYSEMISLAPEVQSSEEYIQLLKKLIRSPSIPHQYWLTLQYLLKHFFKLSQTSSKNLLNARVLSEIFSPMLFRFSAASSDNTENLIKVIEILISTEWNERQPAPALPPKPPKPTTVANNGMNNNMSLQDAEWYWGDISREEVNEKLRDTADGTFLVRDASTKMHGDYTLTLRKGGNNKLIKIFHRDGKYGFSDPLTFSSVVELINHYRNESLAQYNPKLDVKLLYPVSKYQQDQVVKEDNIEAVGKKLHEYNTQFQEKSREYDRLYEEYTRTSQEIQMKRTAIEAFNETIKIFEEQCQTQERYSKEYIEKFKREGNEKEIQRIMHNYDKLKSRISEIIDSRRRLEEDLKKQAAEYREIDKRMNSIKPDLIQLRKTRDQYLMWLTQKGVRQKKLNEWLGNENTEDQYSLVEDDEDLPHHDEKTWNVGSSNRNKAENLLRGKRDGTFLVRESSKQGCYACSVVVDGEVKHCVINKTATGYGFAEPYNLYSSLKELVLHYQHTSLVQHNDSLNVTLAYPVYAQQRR", "T1 sequence (P42336 whole entry, the tested form may be a part, canonical isoform)": "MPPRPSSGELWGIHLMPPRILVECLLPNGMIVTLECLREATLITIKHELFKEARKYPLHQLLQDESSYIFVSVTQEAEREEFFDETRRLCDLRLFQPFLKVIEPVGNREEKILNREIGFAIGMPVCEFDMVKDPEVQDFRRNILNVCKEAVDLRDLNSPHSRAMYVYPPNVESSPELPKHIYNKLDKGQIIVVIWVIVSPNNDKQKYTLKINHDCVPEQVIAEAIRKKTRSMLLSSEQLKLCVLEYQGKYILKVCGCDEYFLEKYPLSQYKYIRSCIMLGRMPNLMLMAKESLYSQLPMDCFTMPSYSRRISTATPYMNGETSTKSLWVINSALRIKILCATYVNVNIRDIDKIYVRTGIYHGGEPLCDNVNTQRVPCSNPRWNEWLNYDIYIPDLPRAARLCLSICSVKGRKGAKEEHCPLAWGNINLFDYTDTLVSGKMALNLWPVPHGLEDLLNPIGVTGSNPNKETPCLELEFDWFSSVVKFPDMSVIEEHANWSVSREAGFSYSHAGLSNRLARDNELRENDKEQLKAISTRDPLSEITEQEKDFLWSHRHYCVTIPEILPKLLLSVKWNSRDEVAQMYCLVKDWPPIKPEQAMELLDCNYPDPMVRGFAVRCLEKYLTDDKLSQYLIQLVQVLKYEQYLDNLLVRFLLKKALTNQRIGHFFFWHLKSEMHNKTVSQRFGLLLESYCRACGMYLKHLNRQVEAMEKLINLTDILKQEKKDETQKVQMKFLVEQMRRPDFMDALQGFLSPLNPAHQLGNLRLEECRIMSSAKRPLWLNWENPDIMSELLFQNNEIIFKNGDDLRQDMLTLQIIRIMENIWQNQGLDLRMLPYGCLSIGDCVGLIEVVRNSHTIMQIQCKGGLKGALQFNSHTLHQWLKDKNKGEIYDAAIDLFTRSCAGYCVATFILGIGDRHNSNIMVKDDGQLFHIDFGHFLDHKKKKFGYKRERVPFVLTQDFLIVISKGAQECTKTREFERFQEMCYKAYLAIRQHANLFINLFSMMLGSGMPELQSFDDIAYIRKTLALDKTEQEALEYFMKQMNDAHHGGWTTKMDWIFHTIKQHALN", "assay": "In Vitro PI3K Enzyme Assay (AlphaScreen)", "assay_type": "biochemical", "conditions": "Test (a); read-out: IC50 versus p110α Type Ia human PI3K", "from_the_text": "(a) In Vitro PI3K Enzyme Assay\nThe assay used AlphaScreen technology (Gray et al., Analytical Biochemistry, 2003, 313: 234-245) to determine the ability of test compounds to inhibit phosphorylation by recombinant Type I PI3K enzymes of the lipid PI(4,5)P2.\nDNA fragments encoding human PI3K catalytic and regulatory subunits were isolated from cDNA libraries using standard molecular biology and PCR cloning techniques. The selected DNA fragments were used to generate baculovirus expression vectors. In particular, full length DNA of each of the p110α, p110β and p110δ Type Ia human PI3K p110 isoforms (EMBL Accession Nos. HSU79143, S67334, Y10055 for p110α, p110β and p110δ respectively) were sub-cloned into a pDEST10 vector (Invitrogen Limited, Fountain Drive, Paisley, UK). The vector is a Gateway-adapted version of Fastbac1 containing a 6-His epitope tag. […]\nEach reaction was stopped by the addition of 10 μl of a mixture of EDTA (100 mM), bovine serum albumin (BSA, 0.045%) and Tris-HCl pH7.6 buffer (40 mM). […] The resultant signals arising from laser light excitation at 680 nm were read using a Packard AlphaQuest instrument. […]"}, "[1]": {"target": "mTOR PI kinase-related kinase (Homo sapiens, UniProt P42345)", "sequence (P42345 1362-2549)": "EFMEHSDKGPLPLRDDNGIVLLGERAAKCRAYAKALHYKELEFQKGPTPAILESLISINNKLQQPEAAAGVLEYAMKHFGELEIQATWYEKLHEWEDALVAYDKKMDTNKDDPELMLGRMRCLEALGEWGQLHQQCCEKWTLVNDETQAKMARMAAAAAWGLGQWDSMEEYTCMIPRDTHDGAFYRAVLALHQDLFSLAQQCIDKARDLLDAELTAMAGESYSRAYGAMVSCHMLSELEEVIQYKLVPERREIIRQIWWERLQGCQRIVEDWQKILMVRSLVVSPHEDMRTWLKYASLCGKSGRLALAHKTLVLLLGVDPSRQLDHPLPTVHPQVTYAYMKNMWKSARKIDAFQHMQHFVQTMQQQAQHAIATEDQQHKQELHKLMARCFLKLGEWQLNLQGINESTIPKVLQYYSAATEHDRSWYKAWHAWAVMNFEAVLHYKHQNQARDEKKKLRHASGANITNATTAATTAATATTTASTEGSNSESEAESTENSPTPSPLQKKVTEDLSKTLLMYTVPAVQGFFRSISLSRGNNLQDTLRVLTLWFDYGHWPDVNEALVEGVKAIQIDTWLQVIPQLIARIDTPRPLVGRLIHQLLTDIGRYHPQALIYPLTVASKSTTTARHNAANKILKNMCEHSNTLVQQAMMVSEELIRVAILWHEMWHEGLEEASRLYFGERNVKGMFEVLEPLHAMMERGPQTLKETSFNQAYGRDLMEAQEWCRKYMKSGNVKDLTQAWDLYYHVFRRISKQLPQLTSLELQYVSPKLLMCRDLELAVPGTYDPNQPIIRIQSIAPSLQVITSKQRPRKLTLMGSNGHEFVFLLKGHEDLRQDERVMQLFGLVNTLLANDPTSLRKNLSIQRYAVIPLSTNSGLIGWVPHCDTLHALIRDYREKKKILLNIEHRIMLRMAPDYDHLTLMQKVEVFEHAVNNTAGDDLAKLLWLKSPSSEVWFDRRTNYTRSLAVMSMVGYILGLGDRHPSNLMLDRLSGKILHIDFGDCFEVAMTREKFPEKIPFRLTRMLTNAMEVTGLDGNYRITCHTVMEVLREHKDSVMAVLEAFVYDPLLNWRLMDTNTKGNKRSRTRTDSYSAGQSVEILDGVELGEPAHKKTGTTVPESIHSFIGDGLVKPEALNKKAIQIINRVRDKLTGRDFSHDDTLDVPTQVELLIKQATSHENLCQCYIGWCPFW", "assay": "In Vitro mTOR PI kinase-related Kinase Assay (AlphaScreen)", "assay_type": "biochemical", "conditions": "Test (b); read-out: IC50 versus mTOR PI kinase-related kinase", "protocol": "(b) In Vitro mTOR PI kinase-related Kinase Assay The assay used AlphaScreen technology (Gray et al., Analytical Biochemistry, 2003, 313: 234-245) to determine the ability of test compounds to inhibit phosphorylation by recombinant mTOR. […]\nEach reaction was stopped by the addition of 10 μl of a mixture of EDTA (50 mM), bovine serum albumin (BSA; 0.5 mg/ml) and Tris-HCl pH7.4 buffer (50 mM) containing p70 S6 Kinase (T389) IA5 Monoclonal Antibody (Cell Signalling Technology, Catalogue No. 9206B) and AlphaScreen Streptavidin donor and Protein A acceptor beads (200 ng; Perkin Elmer, Catalogue No. 6760002B and 6760137R respectively) were added and the assay plates were left for about 20 hours at room temperature in the dark. The resultant signals arising from laser light excitation at 680 nm were read using a Packard Envision instrument.\nPhosphorylated biotinylated peptide is formed in situ as a result of mTOR mediated phosphorylation. […] Upon laser light excitation at 680 nm, the donor bead: acceptor bead complex produces a signal that can be measured. […] In the presence of an mTOR kinase inhibitor, signal strength is reduced. mTOR enzyme inhibition for a given test compound was expressed as an IC50 value."}, "[2]": {"test_system": "phosphorylation of Serine 473 in Akt in MDA-MB-468 human breast adenocarcinoma cell line", "assay": "In Vitro Phospho-Ser473 Akt Assay", "assay_type": "cell-based", "conditions": "Test (c), MDA-MB-468 cells, read-out: IC50, inhibition of phosphorylation of Serine 473 in Akt", "protocol": "(c) In Vitro Phospho-Ser473 Akt Assay\nThis assay determines the ability of test compounds to inhibit phosphorylation of Serine 473 in Akt as assessed using Acumen Explorer technology (TTP LabTech Limited, Royston, Herts, SG8 6EE, UK), a plate reader that can be used to rapidly quantitate features of images generated by laser-scanning.\nA MDA-MB-468 human breast adenocarcinoma cell line (LGC Promochem, Teddington, Middlesex, UK, Catalogue No. HTB-132) was routinely maintained at 37° C. with 5% CO2 up to a confluency of 70-90% in DMEM containing 10% FCS and 1% L-glutamine.\nFor the assay, the cells were detached from the culture flask using ‘Accutase’ (Innovative Cell Technologies Inc., San Diego, Calif., USA; Catalogue No. AT104) using standard tissue culture methods and resuspended in media to give 5.5×10^4 cells per ml. Aliquots (90 μl) were seeded into each of the inner 60 wells of a black ‘Costar’ 96-well plate (Corning Inc., NY, USA; Catalogue No. 3904) to give a density of 5000 cells per well. Aliquots (90 μl) of culture media were placed in the outer wells to prevent edge effects. [An alternative cell handling procedure involved the maintenance of the cells in a ‘SelecT’ robotic device (The Automation Partnership, Royston, Herts SG8 5WY, UK). Cells were resuspended in media to give 5×10^4 cells per ml. Aliquots (100 μl) were seeded into the wells of a black ‘Costar’ 96-well plate.] […]"}}}
{"smiles": "CC(=O)Nc1ncc(-c2cc(NS(=O)(=O)c3ccccc3)cnc2C)s1", "note": "[Example 1, N-[5-(5-benzenesulphonamido-2-methylpyridin-3-yl)thiazol-2-yl]acetamide]", "values": [{"measurement": "IC50", "setting": "p110α Type Ia human PI3K", "value": "~5", "unit": "µM"}, {"measurement": "IC50", "setting": "[1]", "value": "~0.5", "unit": "µM"}, {"measurement": "IC50", "setting": "[2]", "value": "~10", "unit": "µM"}]}
